US10239843B2 (CANCER RESEARCH TECHNOLOGY LIMITED, priority 2014, dated 2019)
Where two headings read alike, the source gives them in different places.

How the values were obtained:
PARG in HeLa cell line = test: PARG cell assay (PAR chain immunofluorescence after MMS); assay type: cell-based; settings: HeLa cells, MMS treatment, read-out: PARG Cell IC50
Summary of the method: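 Nuclear poly(ADP-ribose) chains in HeLa cells are read by indirect immunofluorescence with a mouse anti-PAR antibody applied overnight at 4° C after fixing and permeabilising. Cells get 1 h of compound, then 50 μg/mL MMS (final) for another hour. PAR persisting at that point reflects PARG inhibition.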

Human Full Length PARG = Human Full Length PARG (Homo sapiens (Human), UniProt Q86W56); test: PARG enzyme assay (TR-FRET); assay type: biochemical; settings: read-out: PARG Biochem IC50
Human Full Length PARG, sequence (Q86W56 whole entry): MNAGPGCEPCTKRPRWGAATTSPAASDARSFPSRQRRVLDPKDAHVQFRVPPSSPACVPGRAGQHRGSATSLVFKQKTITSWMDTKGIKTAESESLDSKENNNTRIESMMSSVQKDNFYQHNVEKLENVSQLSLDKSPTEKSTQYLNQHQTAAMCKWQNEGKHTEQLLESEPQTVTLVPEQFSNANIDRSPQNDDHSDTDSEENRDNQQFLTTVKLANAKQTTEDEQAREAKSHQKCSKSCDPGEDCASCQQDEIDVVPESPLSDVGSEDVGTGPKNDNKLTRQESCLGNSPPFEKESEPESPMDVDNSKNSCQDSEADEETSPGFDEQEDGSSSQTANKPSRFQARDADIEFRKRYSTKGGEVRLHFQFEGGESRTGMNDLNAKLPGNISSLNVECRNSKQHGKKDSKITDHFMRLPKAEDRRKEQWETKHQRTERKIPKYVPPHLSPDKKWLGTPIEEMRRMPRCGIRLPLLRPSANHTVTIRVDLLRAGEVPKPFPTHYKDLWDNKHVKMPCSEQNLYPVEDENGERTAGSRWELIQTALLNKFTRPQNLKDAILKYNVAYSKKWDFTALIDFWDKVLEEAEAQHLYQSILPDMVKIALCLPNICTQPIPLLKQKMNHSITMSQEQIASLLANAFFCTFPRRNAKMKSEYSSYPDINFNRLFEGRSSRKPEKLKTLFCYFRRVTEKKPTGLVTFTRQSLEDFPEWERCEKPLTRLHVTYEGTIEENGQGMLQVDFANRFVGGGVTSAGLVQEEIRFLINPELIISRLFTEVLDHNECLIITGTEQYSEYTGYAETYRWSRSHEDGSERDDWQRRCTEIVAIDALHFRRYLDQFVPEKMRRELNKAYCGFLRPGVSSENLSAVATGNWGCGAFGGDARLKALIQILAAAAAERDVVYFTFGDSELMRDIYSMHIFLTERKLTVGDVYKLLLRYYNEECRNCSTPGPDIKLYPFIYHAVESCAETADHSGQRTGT

Row | Structure (SMILES) | IC50 (PARG in HeLa cell line) [nM] | IC50 (Human Full Length PARG) [nM] | IC50 (PARG in HeLa cell line; Homo sapiens) [nM]
1 | Cc1cc(Cn2c(=O)n(Cc3cnn(C)c3)c(=O)c3cc(S(=O)(=O)NC(C)(C)C)ccc32)n(C)n1 [Example 480] | 1530 | 784 | –
2 | Cn1c(=O)n(CC2COC2)c(=O)c2cc(S(=O)(=O)NC3(C)CC3)ccc21 [Example 481, 1-Methyl-N-(1-methylcyclopropyl)-3-(oxetan-3-ylmethyl)-2,4-dioxo-quinazoline-6-sulfonamide] | – | 7000 | 2840
3 | Cc1cc(Cn2c(=O)c3cc(S(=O)(=O)NC4(C)CC4)cc(Br)c3n(C)c2=O)on1 [Example 482, 8-Bromo-1-methyl-N-(1-methylcyclopropyl)-3-[(3-methylisoxazol-5-yl)methyl]-2,4-dioxo-quinazoline-6-sulfonamide] | – | 830 | 274
4 | Cc1cc(Cn2c(=O)c3cc(S(=O)(=O)NC4(C)CC4)cc(-c4cnn(C)c4)c3n(C)c2=O)on1 [Example 483, 1-Methyl-N-(1-methylcyclopropyl)-3-[(3-methylisoxazol-5-yl)methyl]-8-(1-methylpyrazol-4-yl)-2,4-dioxo-quinazoline-6-sulfonamide] | – | 1690 | 845
5 | Cc1cc(Cn2c(=O)n(Cc3cnn(C)c3)c(=O)c3cc(S(=O)(=O)NC4(C(F)(F)F)CC4)ccc32)n(C)n1 [Example 485, 1-[(2,5-Dimethylpyrazol-3-yl)methyl]-3-[(1-methylpyrazol-4-yl)methyl]-2,4-dioxo-N-[1-(trifluoromethyl)cyclopropyl]quinazoline-6-sulfonamide] | 4070 | 7100 | –
6 | Cn1cc(Cc2cc3cc(S(=O)(=O)NC4(C)CC4)ccc3[nH]c2=O)cn1 [Example 486, N-(1-Methylcyclopropyl)-3-[(1-methylpyrazol-4-yl)methyl]-2-oxo-1H-quinoline-6-sulfonamide] | – | 1620 | 2280
7 | CC1(NS(=O)(=O)c2ccc3[nH]c(=O)c(Br)cc3c2)CC1 [Example 487, 3-Bromo-N-(1-methylcyclopropyl)-2-oxo-1H-quinoline-6-sulfonamide] | – | 8970 | > 30000

The remaining lines, values ahead:

Row | IC50 (PARG in HeLa cell line) [nM] | IC50 (Human Full Length PARG) [nM] | IC50 (PARG in HeLa cell line; Homo sapiens) [nM] | Structure (SMILES)
8 | 1790 | 3440 | – | Cn1cc(Cc2cc3cc(S(=O)(=O)NC4(C)CC4)ccc3n(C)c2=O)cn1 [Example 491, 1-Methyl-N-(1-methylcyclopropyl)-3-[(1-methylpyrazol-4-yl)methyl]-2-oxo-quinoline-6-sulfonamide]
9 | – | 489 | 741 | Cc1cc(Cn2c(=O)c(Cc3cnn(C)c3)cc3cc(S(=O)(=O)NC4(C)CC4)ccc32)n(C)n1 [Example 492, 1-[(2,5-Dimethylpyrazol-3-yl)methyl]-N-(1-methylcyclopropyl)-3-[(1-methylpyrazol-4-yl)methyl]-2-oxo-quinoline-6-sulfonamide]
10 | – | 453 | 524 | Cc1cc(Cn2c(=O)c3cc(S(=O)(=O)NC4(C)CC4)cc(-c4ccc(C)s4)c3n(C)c2=O)on1 [Example 493, 1-Methyl-N-(1-methylcyclopropyl)-3-[(3-methylisoxazol-5-yl)methyl]-8-(5-methyl-2-thienyl)-2,4-dioxo-quinazoline-6-sulfonamide]
11 | – | 1260 | 1100 | Cn1c(=O)n(Cc2cnsc2)c(=O)c2cc(S(=O)(=O)NC3(CF)CC3)ccc21 [Example 494, N-[1-(Fluoromethyl)cyclopropyl]-3-(isothiazol-4-ylmethyl)-1-methyl-2,4-dioxo-quinazoline-6-sulfonamide]
12 | 5490 | 2670 | – | CC1(NS(=O)(=O)c2ccc3[nH]c(=O)n(CCC#N)c(=O)c3c2)CC1 [Example 496, 3-(2-Cyanoethyl)-N-(1-methylcyclopropyl)-2,4-dioxo-1H-quinazoline-6-sulfonamide]
13 | – | 2710 | 2250 | Cn1c(=O)n(CCC#N)c(=O)c2cc(S(=O)(=O)NC3(C)CC3)ccc21 [Example 497, 3-(2-Cyanoethyl)-1-methyl-N-(1-methylcyclopropyl)-2,4-dioxo-quinazoline-6-sulfonamide]
